Laboratory results taken from patent US11623927B2, “Substituted [1,2,4]triazolo[1,5-a]pyrimidines for stabilizing microtubules” (THE TRUSTEES OF THE UNIVERSITY OF PENNSYLVANIA, priority 2018, dated 2023).

Tests used:
MTs [1] = details: in words; versus vincristine, taxol, colchicine; cited from earlier work
total α-tubulin = experiment: cell-based MT assay: total α-tubulin by ELISA in cell lysates; details: for Total α-Tubulin: 4 h incubation, ELISA, relative level, average and SD of triplicate; for effect on total tubulin: in words, see FIG. 1 (compound 22, HEK-293 cells, 4 h)
Procedure: (§1) The compounds where then evaluated in a cell-based MT assay as described in Kovalevich, Characterization of brain-penetrant pyrimidine-containing molecules with differential microtubule-stabilizing activities developed as potential therapeutic agents for Alzheimer's disease and related tauopathies. J. Pharmacol. Exp. Ther., 2016, 357, 432-50. In summary, acetylated α-tubulin and total α-tubulin levels were determined by ELISA in cell lysates after 4 h of incubation with test compound at either 1 or 10 μM. See, Table 1.

MTs [2] = details: in words; cited from earlier work
acetylated α-tubulin = experiment: cell-based MT assay: acetylated α-tubulin by ELISA in cell lysates; details: for Acetylated α-Tubulin: 4 h incubation, ELISA, relative level, average and SD of triplicate; for relative activity in the cell-based MT assay / shape of dose-response: in words; for relative activity in the cell-based MT assay: comparison among tested compounds; for shape of dose-response: see FIG. 1 (compound 22, HEK-293 cells, 4 h)
Procedure: as §1

Row | SMILES | Total α-Tubulin (total α-tubulin; 10 μM test compound) | relative activity in the cell-based MT assay (acetylated α-tubulin) | shape of dose-response (acetylated α-tubulin) | effect on total tubulin (total α-tubulin) | also measured
1 | CNCCCOc1cc(F)c(-c2c(Cl)nc3ncnn3c2N[C@@H](C)C(F)(F)F)c(F)c1 [Cevipabulin (1), Cevipabulin] |  |  |  |  | competition for binding to MTs (MTs [1]): competes with vincristine but not taxol or colchicine
2 | CO[C@H]1C[C@H]2CC[C@@H](C1)N2c1c(-c2c(F)cc(F)cc2F)c(Cl)nc2ncnn12 [Compound 2, reference compound] |  |  |  |  | Total α-Tubulin (total α-tubulin; 1 μM test compound): 1.12 ± 0.08; binding to MTs versus unpolymerized tubulin heterodimers (MTs [2]): binds exclusively to MTs and not to unpolymerized tubulin heterodimers
3 | C[C@H](Nc1c(-c2c(F)cc(OCCCNC(=O)c3ccc(C4(C(F)(F)F)N=N4)cc3)cc2F)c(Cl)nc2ncnn12)C(F)(F)F [Compound 11, (S)—N-(3-(4-(5-chloro-7-((1,1,1-trifluoropropan-2-yl)amino)-[1,2,4]triazolo[1,5-a]pyrimidin-6-yl)-3,5-difluorophenoxy)propyl)-4-(3-(trifluoromethyl)-3H-diazirin-3-yl)benzamide] | 0.88 ± 0.05 |  |  |  | Acetylated α-Tubulin (acetylated α-tubulin; 1 μM test compound): 1.30 ± 0.28
4 | C[C@H](Nc1c(-c2c(F)cc(F)cc2F)c(Cl)nc2ncnn12)C1(C)N=N1 [Compound 14, (S)-5-chloro-N-(1-(3-methyl-3H-diazirin-3-yl)ethyl)-6-(2,4,6-trifluorophenyl)-[1,2,4]triazolo[1,5-a]pyrimidin-7-amine] | 0.94 ± 0.02 |  |  |  | 
5 | C[C@@H](Nc1c(-c2c(F)cc(OCCCN(C)C)cc2F)c(Cl)nc2ncnn12)C1(C)N=N1 [Compound 21, (R)-5-chloro-6-(4-(3-(dimethylamino)propoxy)-2,6-difluorophenyl)-N-(1-(3-methyl-3H-diazirin-3-yl)ethyl)-[1,2,4]triazolo[1,5-a]pyrimidin-7-amine] |  | most active | bell-shaped dose-response | profound loss of total tubulin in a dose-dependent manner | Acetylated α-Tubulin (acetylated α-tubulin; 10 μM test compound): 0.93 ± 0.03
6 | CN(C)CCCOc1cc(F)c(-c2c(Cl)nc3ncnn3c2NCC2(C)N=N2)c(F)c1 [Compound 22, 5-chloro-6-(4-(3-(dimethylamino)propoxy)-2,6-difluorophenyl)-N-((3-methyl-3H-diazirin-3-yl)methyl)-[1,2,4]triazolo[1,5-a]pyrimidin-7-amine] |  | most active | bell-shaped dose-response | profound loss of total tubulin in a dose-dependent manner | 
